Test results as given in ChEMBL document CHEMBL5113383, “Application of the All-Hydrocarbon Stapling Technique in the Design of Membrane-Active Peptides” (J Med Chem, 2022).
Converted amounts (≈) assume the structure as drawn. Positions of bridges follow the written chain, without caps; N, C: chain ends. Non-standard residues stand in square brackets, D forms with d. Residues, ends and D or L forms follow the SMILES beside them. S5 = C=CCCC[C@](C)(N)C(=O)O; Nle = CCCC[C@H](N)C(=O)O

Experiments:
Pichia kudriavzevii = experiment: Antimicrobial activity against Candida krusei ATCC 2340; format: functional
Candida albicans [1] = experiment: Antimicrobial activity against Candida albicans SC5314; format: functional
[Candida] auris [2] = Antimicrobial activity against Candida auris 918; format: functional; conditions: Candidozyma auris
Candida albicans [3] = experiment: Antimicrobial activity against Candida albicans 904; format: functional
Candida parapsilosis = experiment: Antimicrobial activity against Candida parapsilosis ATCC 22010; format: functional; conditions: Lodderomyces parapsilosis
Nakaseomyces glabratus [4] = experiment: Antimicrobial activity against Candida glabrata 896; format: functional
Candida tropicalis [5] = experiment: Antimicrobial activity against Candida tropicalis 895; format: functional
Nakaseomyces glabratus [6] = experiment: Antimicrobial activity against Candida glabrata ATCC 1182; format: functional
Candida tropicalis [7] = experiment: Antimicrobial activity against Candida tropicalis ATCC 20026; format: functional
Candida albicans [8] = experiment: Antimicrobial activity against Candida albicans 901; format: functional
[Candida] auris [9] = Antimicrobial activity against Candida auris 919; format: functional; conditions: Candidozyma auris
[10] = Hemolytic activity in human erythrocytes incubated for 30 mins; format: toxicity, cell-based, Erythrocyte

Row | Compound | MIC (Pichia kudriavzevii) [µg/mL] | MIC (Candida albicans [1]) [µg/mL] | MIC ([Candida] auris [2]) [µg/mL] | MIC (Candida albicans [3]) [µg/mL] | MIC (Candida parapsilosis) [µg/mL] | MIC (Nakaseomyces glabratus [4]) [µg/mL] | MIC (Candida tropicalis [5]) [µg/mL] | MIC (Nakaseomyces glabratus [6]) [µg/mL] | MIC (Candida tropicalis [7]) [µg/mL] | MIC (Candida albicans [8]) [µg/mL] | MIC ([Candida] auris [9]) [µg/mL] | HC50 at 0.5 h [10] [µM]
1 | OC(Cn1cncn1)(Cn1cncn1)c1ccc(F)cc1F [FLUCONAZOLE] | 64 (≈ 209 µM) | 0.5 (≈ 1.63 µM) | > 128 | > 64 | 1 (≈ 3.27 µM) | > 128 | > 128 | 2 (≈ 6.53 µM) | 1 (≈ 3.27 µM) | > 64 | > 128 | –
2 | CC[C@H](C)[C@H](NC(=O)[C@H](CC(=O)O)NC(=O)[C@H](Cc1ccccc1)NC(=O)[C@H](CC(C)C)NC(=O)CNC(C)=O)C(=O)N[C@H](C(=O)N[C@@H](CCCCN)C(=O)N[C@@H](CCCCN)C(=O)N[C@@]1(C)CCC/C=C\CCC[C@@](C)(C(N)=O)NC(=O)[C@H](CO)NC(=O)[C@H](CCC(=O)O)NC(=O)[C@H](C)NC1=O)[C@@H](C)CC (Ac-GLFDIIKK[S5]AES[S5]-NH2; staple (Z) 9-13) | > 128 | > 64 | > 128 | > 128 | > 128 | > 128 | 32 (≈ 21.2 µM) | > 128 | > 128 | > 128 | > 128 | –
3 | CCCC[C@@H]1NC(=O)[C@H](CCCCN)NC(=O)[C@H](Cc2c[nH]c3ccccc23)NC(=O)[C@@](C)(NC(=O)[C@@H](N)CCCCN)CCC/C=C\CCC[C@@](C)(C(=O)N[C@@H](CCCCN)C(N)=O)NC1=O (H-K[S5]WK[Nle][S5]K-NH2; staple (Z) 2-6) | – | – | – | – | – | – | – | – | – | – | – | 3.3
4 | CC[C@H](C)[C@@H]1NC(=O)[C@H]([C@@H](C)CC)NC(=O)[C@@](C)(NC(=O)[C@H](Cc2ccccc2)NC(=O)[C@H](CC(C)C)NC(=O)CN)CCC/C=C\CCC[C@@](C)(C(=O)N[C@H](C(=O)N[C@@H](C)C(=O)N[C@@H](CCC(=O)O)C(=O)N[C@@H](CO)C(=O)N[C@@H](Cc2ccccc2)C(N)=O)[C@@H](C)CC)NC(=O)[C@H](CCCCN)NC1=O (H-GLF[S5]IIK[S5]IAESF-NH2; staple (Z) 4-8) | > 128 | > 64 | > 128 | > 128 | > 128 | > 128 | > 128 | > 128 | > 128 | > 128 | > 128 | –
5 | Ac-GLFDIIKKIAESF-NH2 | > 128 | > 64 | > 128 | > 128 | > 128 | > 128 | > 128 | > 128 | > 128 | > 128 | > 128 | –
6 | CC[C@H](C)[C@H](N)C(=O)N[C@@H](CC(=O)O)C(=O)N[C@@H](Cc1c[nH]c2ccccc12)C(=O)N[C@@H](CCCCN)C(=O)N[C@@H](CCCCN)C(=O)N[C@@]1(C)CCC/C=C\CCC[C@@](C)(C(=O)N[C@@H](CCCCN)C(=O)N[C@@H](CCC(N)=O)C(=O)N[C@H](C(=O)N[C@@H](CC(C)C)C(=O)O)[C@@H](C)CC)NC(=O)[C@H](C)NC(=O)[C@H](CC(=O)O)NC(=O)[C@H](CC(C)C)NC1=O (H-IDWKK[S5]LDA[S5]KQIL-OH; staple (Z) 6-10) | – | – | – | – | – | – | – | – | – | – | – | 12.3
7 | CC[C@H](C)[C@H](NC(=O)[C@H](CC(=O)O)NC(=O)[C@H](Cc1ccccc1)NC(=O)[C@H](CC(C)C)NC(=O)CN)C(=O)N[C@H](C(=O)N[C@@H](CCCCN)C(=O)N[C@@]1(C)CCC/C=C\CCC[C@@](C)(C(=O)N[C@@H](Cc2ccccc2)C(N)=O)NC(=O)[C@H](CCC(=O)O)NC(=O)[C@H](C)NC(=O)[C@H]([C@@H](C)CC)NC1=O)[C@@H](C)CC (H-GLFDIIK[S5]IAE[S5]F-NH2; staple (Z) 8-12) | > 128 | > 64 | > 128 | > 128 | > 128 | > 128 | > 128 | > 128 | > 128 | > 128 | > 128 | –
8 | CC[C@H](C)[C@H](NC(=O)[C@H](CC(=O)O)NC(=O)[C@H](Cc1ccccc1)NC(=O)[C@H](CC(C)C)NC(=O)CN)C(=O)N[C@@]1(C)CCC/C=C\CCC[C@@](C)(C(=O)N[C@@H](CCC(=O)O)C(=O)N[C@@H](CO)C(=O)N[C@@H](Cc2ccccc2)C(N)=O)NC(=O)[C@H]([C@@H](C)CC)NC(=O)[C@H](CCCCN)NC(=O)[C@H](CCCCN)NC1=O (H-GLFDI[S5]KKI[S5]ESF-NH2; staple (Z) 6-10) | > 128 | > 64 | > 128 | > 128 | > 128 | > 128 | > 128 | > 128 | > 128 | > 128 | > 128 | –
9 | CC[C@H](C)[C@@H]1NC(=O)[C@@](C)(NC(=O)[C@H](CC(=O)O)NC(=O)[C@H](Cc2ccccc2)NC(=O)[C@H](CC(C)C)NC(=O)CNC(C)=O)CCC/C=C\CCC[C@@](C)(C(=O)N[C@@H](C)C(=O)N[C@@H](CCC(=O)O)C(=O)N[C@@H](CO)C(=O)N[C@@H](Cc2ccccc2)C(N)=O)NC(=O)[C@H](CCCCN)NC(=O)[C@H](CCCCN)NC1=O (Ac-GLFD[S5]IKK[S5]AESF-NH2; staple (Z) 5-9) | > 128 | 16 (≈ 10.4 µM) | > 128 | > 128 | > 128 | > 128 | 16 (≈ 10.4 µM) | > 128 | > 128 | > 128 | > 128 | –
10 | CC[C@H](C)[C@H](NC(=O)[C@H](CCCCN)NC(=O)[C@H](CCCCN)NC(=O)[C@]1(C)CCC/C=C\CCC[C@](C)(NC(=O)CNC(C)=O)C(=O)N[C@@H](Cc2ccccc2)C(=O)N[C@@H](CC(=O)O)C(=O)N[C@@H]([C@@H](C)CC)C(=O)N1)C(=O)N[C@@H](C)C(=O)N[C@@H](CCC(=O)O)C(=O)N[C@@H](CO)C(=O)N[C@@H](Cc1ccccc1)C(N)=O (Ac-G[S5]FDI[S5]KKIAESF-NH2; staple (Z) 2-6) | > 128 | > 64 | > 128 | > 128 | > 128 | 128 (≈ 82.8 µM) | 16 (≈ 10.4 µM) | > 128 | > 128 | > 128 | > 128 | –
11 | CC[C@H](C)[C@@H]1NC(=O)[C@H](CCCCN)NC(=O)[C@@](C)(NC(=O)[C@@H](NC(=O)[C@@H](NC(=O)[C@H](CC(=O)O)NC(=O)[C@H](Cc2ccccc2)NC(=O)[C@H](CC(C)C)NC(=O)CN)[C@@H](C)CC)[C@@H](C)CC)CCC/C=C\CCC[C@@](C)(C(=O)N[C@@H](CO)C(=O)N[C@@H](Cc2ccccc2)C(N)=O)NC(=O)[C@H](C)NC1=O (H-GLFDII[S5]KIA[S5]SF-NH2; staple (Z) 7-11) | > 128 | > 64 | > 128 | > 128 | > 128 | > 128 | > 128 | > 128 | > 128 | > 128 | > 128 | –
12 | CC[C@H](C)[C@H](NC(=O)[C@H](CCCCN)NC(=O)[C@]1(C)CCC/C=C\CCC[C@](C)(NC(=O)[C@H](CC(C)C)NC(=O)CNC(C)=O)C(=O)N[C@@H](CC(=O)O)C(=O)N[C@@H]([C@@H](C)CC)C(=O)N[C@@H]([C@@H](C)CC)C(=O)N1)C(=O)N[C@@H](C)C(=O)N[C@@H](CCC(=O)O)C(=O)N[C@@H](CO)C(=O)N[C@@H](Cc1ccccc1)C(N)=O (Ac-GL[S5]DII[S5]KIAESF-NH2; staple (Z) 3-7) | > 128 | > 64 | > 128 | > 128 | > 128 | > 128 | > 128 | > 128 | > 128 | > 128 | > 128 | –
